Measured values reported in paper PMC10961089, “Epidermal growth factor receptor inhibition potentiates chemotherapeutics‐mediated sensitization of metastatic breast cancer stem cells” (Cancer Reports, 2024).

Assays:
[1] = system: CD24^+‐breast cancer cells sorted from MDA‐MB‐231; assay: MTT assay in sorted breast cancer cells; format: cell-based, human; settings: doxorubicin 0.01 μM + 1e 5 μM vs doxorubicin 0.01 μM alone
Protocol: To evaluate the cytotoxicity profile of the potential EGFR inhibitors (compounds) against TNBC cell lines—MDA‐MB‐231, MDA‐MB‐468, and control cell line HEK293, cells were seeded at a cell density of 5 × 10^3 cells/well in complete medium onto 96‐well plates. Here, the non‐tumoral human embryonic kidney (HEK293) epithelial cells have been utilized as a control cell line to compare the IC50 values of the compounds between cancerous and non‐cancerous cell lines with a big therapeutic window. The use of HEK293 cells as compared to other non‐cancerous cell lines are easy to maintain in culture and the results obtained from HEK293 are highly reproducible and consistent.[27] Briefly, the cells were incubated at 37°C for 12 h to attain morphology. After 12 h, cells were serum starved by replacing the complete media with media containing 2% FBS to synchronize the cells. […] All the experiments were performed thrice and the IC50 values of the compounds and Doxorubicin were calculated using GraphPad Prism software version 9 (San Diego, CA, USA). Similarly, the percent inhibition of the sorted cell populations by chemotherapeutic drug, doxorubicin in the absence/presence of potent compound 1e or standard EGFR inhibitor, PD153035 was evaluated utilizing GraphPad Prism Version 9 (San Diego, CA, USA).

[2] = system: MDA‐MB‐231; assay: Cell migration (chemotaxis), Boyden-Chamber assay; format: cell-based, human; settings: Doxorubicin 0.01 μM + compound 5 μM (PD153035 10 μM) vs 10% FBS and Doxorubicin alone
Protocol: (§1) TNBC cell lines—MDA‐MB‐231, MDA‐MB‐468, and the sorted CD24^+‐breast cancer cells, and CD24^−/CD44^+‐breast CSC populations from MDA‐MB‐231 [6] were seeded at a density of 1 × 10^6 cells/well to evaluate their migratory potential by Boyden‐Chamber assay. […] At the end of the treatment period, the cells were plated at a density of 5 × 10^3 cells/well in the upper chamber of the Boyden chamber assembly and 10% FBS in the lower chamber was used as a chemoattractant. Separately, the cells in the upper chamber were treated with Doxorubicin (0.01–0.1 μM) alone or with the potential EGFR inhibitors (compounds—1c, 1e, 1g, 1h, 1j, and 1k (5 μM) based on their low IC50 values) or a commercial EGFR inhibitor, PD153035 (10 μM) and incubated for 4 h followed by fixation and staining as described previously.[28], [29]

[3] = system: MDA‐MB‐468; assay: Cell migration (chemotaxis), Boyden-Chamber assay; format: cell-based, human; settings: Doxorubicin 0.01 μM + compound 5 μM (PD153035 10 μM) vs 10% FBS and Doxorubicin alone
Protocol: as §1

[4] = system: human CD44, ALDH1A1, Fibronectin, N‐Cadherin, Vimentin in tumor tissue; assay: qRT-PCR of human CSC/EMT genes in tumor tissues; format: in vivo, C57BL/6 mice
Protocol: Additionally, total RNA was isolated from tumor tissues and utilized for cDNA synthesis (Thermo Scientific, Massachusetts, USA). To determine the transcriptional regulation of expression of EMT genes in tumor tissues subjected to various treatment regimes, quantitative real‐time PCR (qRT‐PCR) analysis was performed as described previously[28] using human gene‐specific forward and reverse primers of EMT genes. Amplification of Eukaryotic 18S rRNA served as an internal control and was utilized to calculate the fold change in expression.[29]
Animal studies have been carried out with the prior approval of the Institutional Animal Ethics Committee (IICT/IAEC/025/2023). C57BL/6 female mice of age 6–8 weeks (N = 35) were initially immunosuppressed with cyclophosphamide (50 mg/kg of body weight, i.p) on alternate days for 2 weeks. For generating a preclinical orthotopic xenograft tumor model, 2 × 10^6 GFP expressing sorted stable CD24^+‐breast cancer cells and CD24^−/CD44^+‐breast CSCs were orthotopically xeno‐transplanted subcutaneously at the fourth mammary fat pad of immune‐suppressed mice (n = 5/group). Subsequently, intratumoral administration of Doxorubicin at a low dose (2.5 mg/kg of body weight), high dose (10 mg/kg of body weight), and/or combinatorial treatment of the potent EGFR inhibitor, compound 1e (50 mg/kg of body weight) or the commercial EGFR inhibitor, PD153035 (50 mg/kg of body weight) with a low dose of doxorubicin was performed to the palpable tumors of breast CSCs at day‐3 post‐transplantation.

c1cncc(C(c2c[nH]c3ccccc23)c2c[nH]c3ccccc23)c1 [1e]
increase of percent inhibition of cell proliferation versus doxorubicin alone [1]: 1.8 folds
migratory potential [2]: significant decrease
migratory potential [3]: significant decrease
expression level of human CD44 in tumor tissue ([4]; with doxorubicin low dose vs low dose doxorubicin alone): significantly decreased
expression of human mesenchymal genes ALDH1A1, Fibronectin, N‐Cadherin, Vimentin ([4]; with low dose of doxorubicin, CSC xenograft): significantly decreased
